Paper PMC4497601 (Angewandte Chemie (International Ed. in English), 2014)
“Also recorded” adds a separate entry of the source.

Experiments:
[1] = molecular target: Hsp90 ATP binding site (Homo sapiens, UniProt P07900); assay: LLS screening in competition mode; settings: Δ=2.5 s; for binding to Hsp90 in LLS competition screening of mixtures: 500 μM spy ligand II, 2.5 μM Hsp90, 600 μM of each ligand
[2] = molecular target: N-terminal ATPase domain of heat shock protein 90 (Hsp90) (Homo sapiens, UniProt P07900); assay: LLS NMR direct titration of ligand against Hsp90; type: binding
[3] = molecular target: Hsp90; settings: read-out: KD ITC; cited from earlier work
[4] = system: Hsp90; settings: cited from earlier work

N[C@@H](Cc1ccc(O)cc1)C(=O)O [tyrosine]
binding to Hsp90 in LLS competition screening of mixtures [1]: nonbinding

Nc1ncnc2c1ncn2[C@@H]1O[C@H](COP(=O)(O)OP(=O)(O)O)[C@@H](O)[C@H]1O [Ligand I, Adenosine diphosphate]
Kd [2]: 15 ± 10 µM
RLLS bound ([2]; bound ligand, fitted from direct titration with 10 μM Hsp90): 77 ± 6 s⁻¹
RLLS free ([2]; free ligand): 731±7 ms^−1
Kd [3]: 10 µM

Nc1ncccn1 [Ligand III, 2-aminopyrimidine]
Kd [3]: > 1000 µM

N=C(N)c1ccc(C(F)(F)F)cc1 [4-trifluoromethylbenzamidine]
binding to Hsp90 in LLS competition screening of mixtures [1]: nonbinding

CC(C)c1cc(C(=O)N2Cc3ccc(CN4CCN(C)CC4)cc3C2)c(O)cc1O [AT13387]
LLS signal of spy ligand II on addition of competitor ([1]; 500 μM ligand II, 10 μM Hsp90, 10 μM competitor): almost completely restored; also recorded: partly restored

NCc1ccc(F)c(F)c1 [3,4-difluorobenzylamine]
binding to Hsp90 in LLS competition screening of mixtures [1]: nonbinding

Cc1cnc(N)c(Br)c1 [Ligand V, 3-bromo-5-methylpyridin-2-ylamine]
binding to Hsp90 in LLS competition screening of mixtures [1]: weakly binding
binding to Hsp90 identified by fragment screening [4]: weak ADP-competitive binders
